Consider eight compounds from patent US8658791B2, “2-substituted-6-amino-5-alkyl, alkenyl or alkynyl-4-pyrimidinecarboxylic acids and 6-substituted-4-amino-3-alkyl, alkenyl or alkynyl picolinic acids and their use as herbicides” (Dow AgroSciences, LLC, priority 2007, dated 2014).

Holding throughout (type): in vivo
For assay [1], the system named is lambsquarter (Chenopodium album). Put plainly: General postemergence herbicidal activity, CHEAL. As to conditions: Chenopodium album, post-emergence, 336 h, postemergence spray, visual score after 14 days, 0 = no injury, 100 = complete kill, read-out: Post-emergent Weed Control CHEAL; for pest or weed control at 140 g/ha: 140 g ai/ha; for pest or weed control at 280 g/ha: 280 g ai/ha. On the procedure: (§1) Seeds or nutlets of the desired test plant species were planted in Sun Gro MetroMix® 306 planting mixture, which typically has a pH of 6.0 to 6.8 and an organic matter content of about 30 percent, in plastic pots with a surface area of 103 square centimeters. When required to ensure good germination and healthy plants, a fungicide treatment and/or other chemical or physical treatment was applied. The plants were grown for 7-21 days in a greenhouse with an approximate 15 hour photoperiod which was maintained at about 23-29° C. during the day and 22-28° C. during the night. Nutrients and water were added on a regular basis and supplemental lighting was provided with overhead metal halide 1000-Watt lamps as necessary. The plants were employed for testing when they reached the first or second true leaf stage.
(§2) A weighed amount, determined by the highest rate to be tested, of each test compound was placed in a 25 mL glass vial and was dissolved in 4 mL of a 97:3 v/v (volume/volume) mixture of acetone and dimethyl sulfoxide (DMSO) to obtain concentrated stock solutions. […] The concentrated stock solutions obtained were diluted with 20 mL of an aqueous mixture containing acetone, water, isopropyl alcohol, DMSO, Atplus 411F crop oil concentrate, and Triton® X-155 surfactant in a 48.5:39:10:1.5:1.0:0.02 v/v ratio to obtain spray solutions containing the highest application rates. Additional application rates were obtained by serial dilution of 12 mL of the high rate solution into a solution containing 2 mL of 97:3 v/v (volume/volume) mixture of acetone and dimethyl sulfoxide (DMSO) and 10 mL of an aqueous mixture containing acetone, water, isopropyl alcohol, DMSO, Atplus 411F crop oil concentrate, and Triton X-155 surfactant in a 48.5:39:10:1.5:1.0:0.02 v/v ratio to obtain 1/2X, 1/4X, 1/8X and 1/16X rates of the high rate. Compound requirements are based upon a 12 mL application volume at a rate of 187 L/ha. Formulated compounds were applied to the plant material with an overhead Mandel track sprayer equipped with a 8002E nozzles calibrated to deliver 187 L/ha over an application area of 0.503 square meters at a spray height of 18 inches (43 cm) above the average plant canopy height. Control plants were sprayed in the same manner with the solvent blank.
(§3) The treated plants and control plants were placed in a greenhouse as described above and watered by sub-irrigation to prevent wash-off of the test compounds. After 14 days, the condition of the test plants as compared with that of the untreated plants was determined visually and scored on a scale of 0 to 100 percent where 0 corresponds to no injury and 100 corresponds to complete kill.

Assay [2] relates to velvetleaf (Abutilon theophrasti). Put plainly: General postemergence herbicidal activity, ABUTH. The note with it: Abutilon theophrasti, post-emergence, 336 h, postemergence spray, visual score after 14 days, 0 = no injury, 100 = complete kill, read-out: Post-emergent Weed Control ABUTH; for pest or weed control at 140 g/ha: 140 g ai/ha; for pest or weed control at 280 g/ha: 280 g ai/ha. On the procedure:
as §1, §2, §3

The subject of assay [3] is wild poinsettia (Euphorbia heterophylla). Put plainly: General postemergence herbicidal activity, EPHHL. As to conditions: Euphorbia heterophylla, post-emergence, 336 h, postemergence spray, visual score after 14 days, 0 = no injury, 100 = complete kill, read-out: Post-emergent Weed Control EPHHL; for pest or weed control at 140 g/ha: 140 g ai/ha; for pest or weed control at 280 g/ha: 280 g ai/ha. On the procedure: as §1, §2, §3

The subject of assay [4] is barnyardgrass (Echinochloa crus-galli). Put plainly: General postemergence herbicidal activity, ECHCG. The note with it: Echinochloa crus-galli, post-emergence, 336 h, postemergence spray, visual score after 14 days, 0 = no injury, 100 = complete kill, read-out: Post-emergent Weed Control ECHCG; for pest or weed control at 140 g/ha: 140 g ai/ha; for pest or weed control at 280 g/ha: 280 g ai/ha. Here is the method: as §1, §2, §3

For another assay, the system named is rice (Oryza sativa). Put plainly: General postemergence herbicidal activity, ORYSA. The note with it: Oryza sativa, post-emergence, 336 h, postemergence spray, visual score after 14 days, 0 = no injury, 100 = complete kill, read-out: Post-emergent Weed Control ORYSA; for plant injury at 140 g/ha: 140 g ai/ha; for plant injury at 280 g/ha: 280 g ai/ha. Here is the method: as §1, §2, §3

For `C/C=C/c1c(N)nc(-c2ccc(Cl)c(OC)c2F)nc1C(=O)OC` [Compound 22, 6-Amino-2-(4-chloro-2-fluoro-3-methoxyphenyl)-5-((E)-propenyl)pyrimidine-4-carboxylic acid methyl ester], the pest or weed control at 70 g/ha in assay [1] (70 g ai/ha) came out at 95%; in assay [2] (70 g ai/ha) it was 85%; in assay [3] (70 g ai/ha), 100%; in assay [4] (70 g ai/ha) it was 95%. Also, the plant injury at 70 g/ha with rice (Oryza sativa) (70 g ai/ha) worked out at 0%.

Regarding `C#Cc1c(N)nc(-c2ccc(Cl)c(OC)c2F)nc1C(=O)OC` [Compound 24, 6-Amino-2-(4-chloro-2-fluoro-3-methoxyphenyl)-5-ethynyl-pyrimidine-4-carboxylic acid methyl ester], the pest or weed control at 140 g/ha in assay [1] was 85%; in assay [2], 80%; in assay [3] it was 85%; in assay [4], 70%. The plant injury at 140 g/ha with rice (Oryza sativa) came out at 0%.

In the case of `COC(=O)c1nc(-c2ccc(Cl)cc2)c(F)c(N)c1C` [Compound 25, 4-Amino-6-(4-chlorophenyl)-5-fluoro-3-methylpyridine-2-carboxylic acid methyl ester], the pest or weed control at 280 g/ha stood at 100% in assay [1], 70% in assay [2], 100% in assay [3] and 0% in assay [4]. For the same compound, in the assay with rice (Oryza sativa), the plant injury at 280 g/ha is 0%.

With `C=Cc1c(C(=O)OC)nc(-c2ccc(Cl)cc2)c(F)c1N` [Compound 26, 4-Amino-6-(4-chlorophenyl)-5-fluoro-3-vinylpyridine-2-carboxylic acid methyl ester], the pest or weed control at 140 g/ha in assay [1] worked out at 100%; in assay [2] it was 100%; in assay [3], 90%; in assay [4] it was 70%. In addition, in the assay on rice (Oryza sativa), the plant injury at 140 g/ha is 0%.

As to `COC(=O)c1nc(-c2ccc(Cl)c(OC)c2F)cc(N)c1C` [Compound 27, 4-Amino-6-(4-chloro-2-fluoro-3-methoxyphenyl)-3-methyl-pyridine-2-carboxylic acid methyl ester], the pest or weed control at 280 g/ha in assay [1] amounted to 30%; in assay [2] it was 80%; in assay [3], 100%; in assay [4] it was 0%. In addition, the plant injury at 280 g/ha in the assay with rice (Oryza sativa) was found to be 0%.

Consider `C=Cc1c(N)cc(-c2ccc(Cl)cc2F)nc1C(=O)OC` [Compound 29, 4-Amino-6-(4-chloro-2-fluorophenyl)-3-vinylpyridine-2-carboxylic acid methyl ester], for which the pest or weed control at 280 g/ha was 85% in assay [1], 85% in assay [2], 75% in assay [3] and 0% in assay [4]. Further, the plant injury at 280 g/ha with rice (Oryza sativa) amounted to 10%.

Take `C=C(F)c1c(C(=O)OC)nc(-c2ccc(Cl)cc2)c(F)c1N` [Compound 30, 4-Amino-6-(4-chlorophenyl)-5-fluoro-3-(1-fluorovinyl)pyridine-2-carboxylic acid methyl ester]: the pest or weed control at 140 g/ha in assay [1] was found to be 100%; in assay [2], 100%; in assay [3], 90%; in assay [4], 0%. In the assay with rice (Oryza sativa), the plant injury at 140 g/ha is 0%.

`C#Cc1c(N)cc(-c2ccc(Cl)c(OC)c2F)nc1C(=O)OC` [Compound 31, 4-Amino-6-(4-chloro-2-fluoro-3-methoxyphenyl)-3-ethynyl-pyridine-2-carboxylic acid methyl ester]: the pest or weed control at 140 g/ha came to 95% in assay [1], 95% in assay [2], 100% in assay [3] and 80% in assay [4]. Moreover, the plant injury at 140 g/ha with rice (Oryza sativa) turned out to be 0%.
